Values of other authors, collected in US8168657B2, “Solenopsin A, B and analogs and as novel angiogenesis inhibitors” (priority 2002, dated 2012).

How the values were obtained:
[1] = tested on: blood and tissue- and fluid-feeding parasites
[2] = as much as 6000 units used over a shorter time period

In the case of `CCCCCCCCCCC[C@H]1CCC[C@H](C)N1` (relative stereo) [Solenopsin A, trans-2-methyl 6-n-undecylpiperidine], the “units equivalent to 250 units of the whole body extracts” value ([1]; synthetic version versus whole body extract, effective treatment) is given as 1500 units, the “elimination of blood and tissue- and fluid-feeding parasites” value ([1]; synthetically produced Solenopsin A) is given as “complete elimination” and the ill effects [2] is given as “did not cause any ill effects”.
